# Source: the supplement of paper PMC10307832
# Experiments:
# Assay in all cases: relative viability (nuclei count vs DMSO), 5 days (fraction); higher = more cells survive
# Darinaparsin + Foretinib = compound: C[As](C)SC[C@H](NC(=O)CC[C@H](N)C(=O)O)C(=O)NCC(=O)O [Darinaparsin] + COc1cc2c(Oc3ccc(NC(=O)C4(C(=O)Nc5ccc(F)cc5)CC4)cc3F)ccnc2cc1OCCCN1CCOCC1 [Foretinib] (partner 0.25 µM)
# In short: (§1)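 After 5 days of treatment, lung cancer cells in 1536-well plates were fixed and stained in a single step (final 0.05% Triton X-100, 1% formaldehyde, 1 ug/ml Hoechst) and their nuclei counted on 4× images. Treatment had been applied by pin tool the day after seeding as one drug alone or as a fixed anchor-drug dose with five library-drug doses (not always all listed) in √10 steps. Relative viability is the nuclei count of treated wells divided by that of vehicle wells, and values are medians of duplicate plates.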
# AZ628 + Decitabine = compound: CC1=C(C=C(C=C1)NC(=O)C2=CC(=CC=C2)C(C)(C)C#N)NC3=CC4=C(C=C3)N=CN(C4=O)C [AZ628] + Nc1ncn([C@H]2C[C@H](O)[C@@H](CO)O2)c(=O)n1 [Decitabine] (partner 2 µM)
# In short: as §1
# QS11 + OSI-027 = compound: C1CC2=C(C1)C=C(C=C2)OC3=NC(=C4C(=N3)N(C=N4)CC5=CC=C(C=C5)C6=CC=CC=C6)N[C@@H](CC7=CC=CC=C7)CO [QS11] + COc1cccc2cc(-c3nc([C@H]4CC[C@H](C(=O)O)CC4)n4ncnc(N)c34)[nH]c12 [OSI-027] (partner 0.5 µM)
# In short: as §1
# QS11 + Decitabine = compound: C1CC2=C(C1)C=C(C=C2)OC3=NC(=C4C(=N3)N(C=N4)CC5=CC=C(C=C5)C6=CC=CC=C6)N[C@@H](CC7=CC=CC=C7)CO [QS11] + Nc1ncn([C@H]2C[C@H](O)[C@@H](CO)O2)c(=O)n1 [Decitabine] (partner 2 µM)
# In short: as §1
Cell Line,relative viability (Darinaparsin + Foretinib; first compound 0.08 µM),relative viability (Darinaparsin + Foretinib; first compound 0.8 µM),relative viability (Darinaparsin + Foretinib; first compound 2.53 µM),relative viability (Darinaparsin + Foretinib; first compound 8 µM),relative viability (AZ628 + Decitabine; first compound 0.08 µM),relative viability (AZ628 + Decitabine; first compound 0.253 µM),relative viability (AZ628 + Decitabine; first compound 0.8 µM),relative viability (AZ628 + Decitabine; first compound 2.53 µM),relative viability (AZ628 + Decitabine; first compound 8 µM),relative viability (QS11 + OSI-027; first compound 0.08 µM),relative viability (QS11 + OSI-027; first compound 0.253 µM),relative viability (QS11 + OSI-027; first compound 0.8 µM),relative viability (QS11 + OSI-027; first compound 8 µM),relative viability (QS11 + Decitabine; first compound 0.08 µM),relative viability (QS11 + Decitabine; first compound 0.253 µM),relative viability (QS11 + Decitabine; first compound 0.8 µM),relative viability (QS11 + Decitabine; first compound 2.53 µM),relative viability (QS11 + Decitabine; first compound 8 µM),relative viability (QS11 + OSI-027; first compound 2.53 µM)
201T,1.2,1.15,1.19,1.03,0.869,0.859,0.874,0.911,0.858,0.759,0.685,0.662,0.836,0.8,0.907,0.74,0.901,0.694,–
A549,1.27,0.991,0.896,1.41,0.262,0.24,0.268,0.287,0.206,–,–,–,–,0.224,0.215,0.271,0.214,0.212,–
A-427,1.35,1.15,0.989,1.32,0.58,0.582,0.494,0.52,0.451,0.411,0.455,–,0.408,0.523,0.561,–,0.613,0.674,0.507
ABC-1,1.36,0.995,1.18,1.08,1.07,0.898,1.07,1.18,1.07,0.477,0.348,0.519,0.457,0.946,1.04,0.907,1.12,0.949,0.492
BEN,0.668,0.708,0.621,0.691,0.758,0.637,0.651,0.668,0.735,0.304,0.316,0.309,0.3,0.717,0.775,0.74,0.713,0.695,0.33
CAL-12T,1.23,0.983,1.12,1.14,–,–,–,–,–,0.656,0.457,0.498,0.407,–,–,–,–,–,0.385
COR-L23,1.21,1.04,0.934,1.34,0.471,0.43,0.349,0.453,0.27,0.756,0.881,0.568,0.444,0.44,0.433,0.443,0.357,0.302,0.475
COR-L 105,1.12,1.2,1.1,1.04,0.74,0.692,0.668,0.613,0.559,0.711,0.521,0.547,0.447,0.747,0.633,0.731,0.639,0.599,0.629
Calu-6,1.04,1.02,0.861,0.938,–,–,–,–,–,–,–,–,–,–,–,–,–,–,–
ChaGo-K-1,0.962,0.97,0.873,1.13,0.548,0.504,0.558,0.524,0.481,0.358,0.666,0.749,0.569,–,0.515,0.5,0.56,0.443,0.659
EBC-1,0.103,0.0925,0.123,0.0888,–,–,–,–,–,–,–,–,–,–,–,–,–,–,–
EKVX,0.835,0.445,0.743,0.786,0.367,0.369,0.401,0.266,0.287,0.644,0.635,–,0.693,0.321,0.44,0.327,0.392,0.341,0.596
EMC-BAC-2,1.08,0.958,1.01,1.16,0.944,0.84,0.874,0.749,0.465,0.391,0.397,0.452,0.337,0.939,1.07,0.842,0.913,0.854,0.373
EPLC-272H,–,0.658,0.619,0.814,0.297,0.328,0.371,0.319,0.225,–,0.287,0.253,0.26,–,0.382,0.388,0.385,0.341,0.259
H3255,0.781,0.863,0.913,0.854,0.723,0.504,0.567,0.51,0.379,0.593,0.675,–,0.608,0.578,0.64,–,0.556,0.674,0.558
HARA,0.944,0.927,0.712,0.938,0.414,0.441,0.461,0.448,0.289,0.41,0.453,–,0.595,0.508,–,0.36,0.605,0.389,0.457
HCC-15,1.31,1,0.98,1.26,0.633,0.521,0.426,0.481,0.29,0.641,0.674,0.646,0.475,0.697,0.737,0.573,0.586,0.525,0.665
HCC-44,–,–,–,–,0.97,0.999,1,0.953,0.947,0.606,0.531,0.512,0.378,1.08,0.936,0.572,0.922,0.916,0.593
HCC-78,0.555,0.492,0.53,0.483,0.734,0.629,0.771,0.787,0.848,0.405,0.351,0.35,0.478,0.687,0.772,0.662,0.797,0.719,0.435
HCC-366,0.905,0.91,0.965,1.14,0.345,0.313,0.269,0.292,0.182,0.877,0.749,–,0.257,0.346,0.329,–,0.369,0.192,0.742
HCC-827,1.16,1.09,1.02,1.06,0.33,0.32,0.348,0.402,0.313,0.845,0.855,0.754,1.01,0.343,0.33,0.308,0.336,0.337,0.862

Cell Line,relative viability (Darinaparsin + Foretinib; first compound 0.08 µM),relative viability (Darinaparsin + Foretinib; first compound 0.8 µM),relative viability (Darinaparsin + Foretinib; first compound 2.53 µM),relative viability (Darinaparsin + Foretinib; first compound 8 µM),relative viability (AZ628 + Decitabine; first compound 0.08 µM),relative viability (AZ628 + Decitabine; first compound 0.253 µM),relative viability (AZ628 + Decitabine; first compound 0.8 µM),relative viability (AZ628 + Decitabine; first compound 2.53 µM),relative viability (AZ628 + Decitabine; first compound 8 µM),relative viability (QS11 + OSI-027; first compound 0.08 µM),relative viability (QS11 + OSI-027; first compound 0.253 µM),relative viability (QS11 + OSI-027; first compound 0.8 µM),relative viability (QS11 + OSI-027; first compound 8 µM),relative viability (QS11 + Decitabine; first compound 0.08 µM),relative viability (QS11 + Decitabine; first compound 0.253 µM),relative viability (QS11 + Decitabine; first compound 0.8 µM),relative viability (QS11 + Decitabine; first compound 2.53 µM),relative viability (QS11 + Decitabine; first compound 8 µM),relative viability (QS11 + OSI-027; first compound 2.53 µM)
HOP-62,1.2,1.16,0.969,1.13,0.235,0.265,0.236,0.249,0.214,0.879,0.845,0.811,0.837,0.244,0.241,0.189,0.208,0.233,0.65
IA-LM,1.51,1.27,1.35,1.55,–,–,–,–,–,–,–,–,–,–,–,–,–,–,–
LC-2-ad,0.949,1.02,0.987,0.836,0.821,0.782,0.816,0.732,0.453,0.783,0.413,0.873,0.79,0.776,0.775,0.691,0.722,0.712,0.847
LCLC-103H,0.858,0.745,0.626,0.858,0.71,0.728,0.726,0.641,0.601,0.434,0.45,0.469,0.502,0.701,0.815,–,0.756,0.711,0.49
LK-2,1.98,–,0.769,1.83,0.308,0.271,0.326,0.338,0.184,0.181,0.238,0.188,0.22,0.246,0.332,0.37,0.288,0.23,0.212
LOU-NH91,0.926,0.92,0.961,0.954,0.814,0.811,0.801,0.816,0.749,0.678,0.722,0.693,0.71,0.807,0.8,0.776,0.852,0.821,0.728
LU99A,0.833,0.703,0.806,0.819,0.825,0.669,0.806,0.447,0.386,0.255,0.306,0.299,0.315,0.873,0.967,0.963,0.922,0.931,0.291
LXF-289,1.07,0.994,0.946,1.1,0.403,0.378,0.394,0.371,0.372,0.764,0.805,0.692,0.82,0.347,0.361,0.346,0.443,0.396,0.873
NCI-H23,0.986,0.843,0.891,1.06,0.298,0.315,0.232,0.291,0.269,0.626,0.516,0.52,0.305,0.282,0.305,0.311,0.292,0.317,0.453
NCI-H322M,1.04,1.04,0.826,1.02,0.659,0.716,0.696,0.681,0.688,0.549,0.607,0.636,0.732,0.741,0.739,0.672,0.801,0.935,0.687
NCI-H358,0.758,0.693,0.648,0.799,0.233,0.192,0.184,0.195,0.158,0.774,0.854,0.888,1.01,0.213,0.213,0.227,0.266,0.207,0.849
NCI-H441,1.2,1.25,1.07,0.902,0.257,0.313,0.245,0.212,0.226,0.614,0.619,0.76,0.548,0.236,0.215,0.254,0.234,0.225,0.566
NCI-H522,–,–,–,–,0.62,0.66,0.686,0.78,0.522,0.733,0.795,0.722,1.97,0.704,0.569,0.677,0.664,0.726,0.727
NCI-H1299,1.14,1.06,1.09,1.11,–,–,–,–,–,–,–,–,–,–,–,–,–,–,–
NCI-H1563,1.02,0.901,0.826,0.999,–,–,–,–,–,0.67,0.775,0.741,0.693,–,–,–,–,–,0.745
NCI-H1623,0.902,0.832,0.871,0.868,–,–,–,–,–,0.417,0.386,0.415,0.426,–,–,–,–,–,0.445
NCI-H1648,–,–,–,–,0.72,0.563,0.453,0.453,0.489,–,0.26,–,0.247,0.516,0.436,0.476,0.443,0.665,0.275
NCI-H1703,0.377,0.328,–,0.307,–,–,–,–,–,–,–,–,–,–,–,–,–,–,–
NCI-H1792,–,–,–,–,0.605,0.532,0.514,0.476,0.121,0.731,0.969,0.65,0.82,–,0.536,0.518,0.498,0.58,0.565
NCI-H2228,1.42,0.935,0.949,0.891,–,–,–,–,–,0.534,0.424,0.538,0.597,–,–,–,–,–,0.74
